These results are taken from US20040054292A1, “Non-invasive apparatus system for monitoring autonomic nervous system and uses thereof” (INDUSTRIAL TECHNOLOGY RESEARCH INSTITUTE, priority 2002, published 2004).

Test [1] concerns autonomic nervous system. In words: Heart rate variability (ECG spectral analysis) in apoplectic patients complicated with hypertension before and after drug. The format is in vivo, human. The following applies: labetalol 12.5 mg injected. The protocol: In this human experiment, the non-invasive apparatus system of the invention was used to monitor the autonomic nervous system functional change side effects caused by drugs. Four (two females and two males) apoplectic patients complicated with hypertension at the age of 77.3±8.8 (± means standard deviation) were chosen in the study. The patients were divided into two groups: (1) the control group and (2) the labetalol group (the experiment group). All patients, 5 minutes before administrating the drug, were classified as the control group. After being treated/injected with labetalol (12.5 mg) for 5 minutes, the patients became the labetalol group. Labetalol is an α and β combined epinephrine antagonist (a sympathetic hormone epinephrine blocker) for lowering blood pressure. Treatment and analysis of the electrocardiograph (ECG) were conducted similarly to those recited in Example 1, except that the ranges of the frequencies were determined based on those of humans. The power of each frequency range comprising variance, low frequency power (0.04-0.15 Hz) and high frequency power (0.15-0.4 Hz) was quantified by integration. Parameters of the ratios of low frequency/high frequency (LF/HF ratio) and low frequency rate (LF%) were also calculated at the same time. The values of variance, LF, HF and LF/HF were logarithmically transformed to correct the distribution bias. All data were presented as mean ±SD, and the differences between the experimental and control groups were examined by paired t-test, wherein a value of p<0.05 is considered as the data having a statistic meaning. […] Variance and HF responses were uncertain (P>0.05). In light of the results of the experiment, it has been proven that non-invasive apparatus system of the invention can be used in patients for monitoring autonomic nervous system functional change side effects caused by drugs.

In test [2] the test system is autonomic nervous system. As to the kind of experiment: Heart rate variability spectral analysis in anesthetized rats after intravenous drug. The format is in vivo, Sprague-Dawley rats. The following applies: for high frequency (index of parasympathetic nervous activity): 0.5 to 2.4 Hz. The protocol:
Matured male Sprague-Dawley rats (weighed 250-350 g) were first sensitizing anesthetized by intraperitoneal injecting of pentobarbital sodium (50 mg/kg) and then were general anesthetized by continuously infusion with pentobarbital sodium (15 mg/kg). The rats were intubated in both femoral veins, wherein one was used for continuously dropping anesthesia and the other was used for delivering testing drug. The rates were tracheal intubated to connect with a respirator (Havard 683) for mechanical respiration. In addition, the skeletal muscle of the whole body of the animals was anesthetized by administrating pancuronium. In order to record the artery pressure, the intubation at the right femoral artery was linked to a PE-50 tube connected with a syringe pre-filled with heparinized saline (200 unit/mL). The artery pressure and heart rate were recorded by a pressure sensory machine ([…], Hewlett-Packard) in the tube. The artery pressure was converted by a pressure converter (Statham, P231D, frequency range: DC to 200 Hz), amplified by a pre-amplifier (Gould, G-13-4615-52), and then filtered (DC to 100 Hz). Electrocardiograph signal was recorded by a second guided electrocardiograph recorder. The signal was amplified by a pre-amplifier(Gould G-20-4615-58) and then filtered (3-300 Hz). At the same time, the signal and the artery pressure were caught by a 12 bit analog-digital converter in an analyzing computer in a frequency of 256 points per second in every channel. The computer used was an IBM-PC compatible type comprising an Intel 80486 micro processor and a 4 MB memory. The Heart rate signals (digital blood pressure signal or electrocardiograph signal) were simultaneously and continuously on-line analyzed by the Fast Fourier Transform method, and the power of each special frequency interval was quantified by integration. High frequency (frequency between 0.5 to 2.4 Hz) in spectrum was considered as an index of parasympathetic nervous function, low frequency % [=100× low frequency/(high frequency+low frequency)] was considered as an index of sympathetic nervous function, and the means of heart rate period and variance were considered as references. The rats were divided into three groups, and each group had 4 to 6 animals. A group of animals were intravenously administered with yohimbine (1 mg/kg), which is a central nervous system α2 receptor antagonist being able to stimulate sympathetic nervous functions and inhibit parasympathetic nervous functions. Another group of animals was intravenously administered with guanabenz (100 μg/kg), which is a central nervous system α2 receptor agonist being able to inhibit sympathetic nervous functions and stimulate parasympathetic nervous functions. The animals administered with saline of the same volume was classified as a controlled group. Prior to applying the drugs, basal blood pressure, mean value of heart rate period and spectral analysis were measured for about 10 minutes, and after the drugs being intravenously administered, the effects of the drugs were measured for 30 minutes. […] Therefore, low frequency % is shown to be a valid index of the sympathetic nervous activity, and high frequency an index of the parasympathetic nervous activity, respectively. […]

The mark [3] stands for this setting: 5 minutes after vs before, P>0.05, FIG. 4.
Setting [4] is: 5 minutes after vs before, p<0.05, FIG. 4.
Setting [5] is: yohimbine 1 mg/kg intravenously, FIG. 3.
Where [6] appears, read: guanabenz 100 μg/kg intravenously, FIG. 2.
The mark [7] stands for this setting: guanabenz 100 μg/kg intravenously, measured for 30 minutes after drug, FIG. 2.

SMILES strings stand for the structures.

On to `CC(CCc1ccccc1)NCC(O)c1ccc(O)c(C(N)=O)c1` (stereo not drawn) [labetalol], for which the heart rate period result in the test with autonomic nervous system [1] (5 minutes after vs 5 minutes before, four patients, p<0.05, FIG. 4) was “increased”. In the test with autonomic nervous system [1] (setting [3]), the HF response entry is “uncertain” and the Variance response result was “uncertain”. Besides, in the test on autonomic nervous system [1] (setting [4]), the “LF % (index of heart sympathetic nervous activity)” value was “decreased” and the “LF/HF (index of heart sympathetic nervous activity)” value is given as “decreased”.

Consider `COC(=O)[C@@H]1[C@H]2C[C@H]3c4[nH]c5ccccc5c4CCN3C[C@@H]2CC[C@@H]1O` [yohimbine], for which, in the test with autonomic nervous system [2] (setting [5]), the “high frequency (index of parasympathetic nervous activity)” value was “lowered”, the heart rate period entry was “lowered” and the “low frequency % (index of sympathetic nervous activity)” value is reported as “tremendously increased”.

With `N=C(N)N/N=C/c1c(Cl)cccc1Cl` [guanabenz], in the test on autonomic nervous system [2] (setting [6]), the “high frequency (index of parasympathetic nervous activity)” value is recorded as “increased” and the “low frequency % (index of sympathetic nervous activity)” value is reported as “tremendously lowered”. Moreover, in the test with autonomic nervous system [2] (setting [7]), the heart rate period entry was “increased” and the heart rate variability result is reported as “increased”.
